Data taken from ChEMBL document CHEMBL1212908, “Flavonoids in the poisonous plant Oxytropis falcata” (J Nat Prod, 2010).

Key:
[1] = system: HL-60; experiment: Cytotoxicity against human HL60 cells by MTT assay; format: functional, cell-based
[2] = system: Radical scavenging activity; experiment: Antioxidant activity assessed as DPPH free radical scavenging activity after 30 mins; format: functional

Compound | IC50 [1] | IC20 [2]
COc1c(O)cc2c(c1OC)O[C@H]1c3ccc(O)cc3OC[C@@H]21 | > 50 µM | 3.8 µM
COc1ccc([C@@H]2COc3cc(O)c(C(c4ccc(O)cc4O)C(O)Cc4ccc(O)cc4)cc3C2)c(O)c1OC (some centres not stated) [OXYTROPISOFLAVAN A] | > 50 µM | > 50 µM
COc1ccc([C@@H]2COC3=CC(=O)CC[C@]3(O)C2)c(O)c1OC [OXYTROPISOFLAVAN B] | > 50 µM | > 50 µM
VITAMIN E |  | 7.6 µM
